Results taken from ChEMBL document CHEMBL1141466, “Potent memapsin 2 (beta-secretase) inhibitors: design, synthesis, protein-ligand X-ray structure, and in vivo evaluation” (Bioorg Med Chem Lett, 2008).

Experiments:
[1] = target: T1, Beta-secretase 1 (Homo sapiens, UniProt P56817)
Description: Binding affinity to recombinant memapsin 2

[2] = target: T1, Beta-secretase 1; remark: listed apart in the source
Description: Inhibition of memapsin 2 expressed in CHO cells

T1 sequence (P56817 whole entry): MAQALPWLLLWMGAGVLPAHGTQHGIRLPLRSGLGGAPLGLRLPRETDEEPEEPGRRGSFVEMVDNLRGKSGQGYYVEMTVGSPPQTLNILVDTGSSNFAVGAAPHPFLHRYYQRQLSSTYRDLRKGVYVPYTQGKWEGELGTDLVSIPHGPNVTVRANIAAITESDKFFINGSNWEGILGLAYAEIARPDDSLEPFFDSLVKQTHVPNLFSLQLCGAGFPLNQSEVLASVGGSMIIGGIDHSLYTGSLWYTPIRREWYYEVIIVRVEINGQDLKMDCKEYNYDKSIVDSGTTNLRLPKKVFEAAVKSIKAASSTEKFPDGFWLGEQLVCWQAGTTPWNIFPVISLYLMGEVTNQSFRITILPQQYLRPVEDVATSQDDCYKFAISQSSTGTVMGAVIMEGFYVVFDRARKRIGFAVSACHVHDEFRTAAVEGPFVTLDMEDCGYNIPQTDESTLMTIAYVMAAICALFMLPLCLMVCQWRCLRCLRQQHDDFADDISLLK

Q: COc1cccc(CNC[C@@H](O)[C@H](CC(C)C)NC(=O)c2cc(C(=O)N[C@H](C)c3ccccc3)cc(N(C)S(C)(=O)=O)c2)c1 was tested. Which Ki [1] did it give?
A: The Ki was 916 nM.

Q: COc1cccc(CNC[C@@H](O)[C@H](Cc2ccccc2)NC(=O)[C@H](CS(C)(=O)=O)NC(=O)OCc2nc(C)oc2C)c1 was tested. Which Ki [1] did it give?
A: Its Ki is 15000 nM.

Q: Which Ki [1] does the source give for C[C@@H](NC(=O)c1cc(C(=O)N[C@@H](Cc2ccccc2)[C@H](O)CNCc2ccc3ccn(S(C)(=O)=O)c3c2)cc(N(C)S(C)(=O)=O)c1)c1ccccc1 here?
A: Its Ki is 27 nM.

Q: What about the IC50 [2] of the same molecule?
A: The IC50 was 200 nM.

Q: For Cc1nc(COC(=O)N[C@@H](CS(C)(=O)=O)C(=O)N[C@@H](CC(C)C)[C@@H](O)C[C@@H](C)C(=O)N[C@H](C(=O)NC(C)(C)C)C(C)C)c(C)o1, which Ki [1] is on record?
A: The Ki was 0.12 nM.

Q: How did the Ki [1] turn out when CC(C)NC[C@@H](O)[C@H](Cc1ccccc1)NC(=O)c1cc(C(=O)N[C@H](C)c2ccccc2)cc(N(C)S(C)(=O)=O)c1 was run?
A: The Ki was 425 nM.

Q: And the IC50 [2]?
A: The IC50 was 1100 nM.

Q: COc1cccc(CNC[C@@H](O)[C@H](Cc2ccccc2)NC(=O)c2cc(C(=O)NCc3nc(C)oc3C)cc(N(C)S(C)(=O)=O)c2)c1 was tested. Which Ki [1] did it give?
A: The Ki was 552 nM.

Q: How did the Ki [1] turn out when CC(C)NC(=O)[C@@H](NC[C@@H](O)[C@H](Cc1ccccc1)NC(=O)c1cc(C(=O)N[C@H](C)c2ccccc2)cc(N(C)S(C)(=O)=O)c1)C(C)C was run?
A: Its Ki is 564 nM.

Q: How did the Ki [1] turn out when C[C@@H](NC(=O)c1cc(C(=O)N[C@@H](Cc2ccccc2)[C@H](O)CNCc2ccc3cc[nH]c3c2)cc(N(C)S(C)(=O)=O)c1)c1ccccc1 was run?
A: Its Ki is 230 nM.

Q: What about the IC50 [2] of the same molecule?
A: Its IC50 is 620 nM.

Q: For COc1cccc(CNC[C@@H](O)[C@H](Cc2ccccc2)NC(=O)c2cc(C(=O)NC(C)c3nc(C)oc3C)cc(N(C)S(C)(=O)=O)c2)c1 (some centres not stated), which Ki [1] is on record?
A: The Ki was 894 nM.
